In data set [1] the test system is HIV-1/LAI infected MT4 cells. It counts as cell-based. The settings on record: in combination with the compound of formula (4); three molar ratios; mean of three experiments. As to the method: In general, combinations of two compounds can act synergistically, in an additive way or antagonistically. […] For the current invention, this was assessed in an experimental setting where the potency of different ratios of the two HIV-protease inhibitors is measured. Results were plotted in an isobologram graph according to the method described by Chou and Talalay (Adv. Enzyme Regul. 22: 27-55, 1984).
The results were analyzed according to the isobologram method described by Chou and Talalay (1984).
The results are presented as the mean of three separate experiments. The combination index (CI) for each combination was determined.

A short description of data set [2]: Safety and tolerability (adverse events, maculopapular rash) in clinical testing.
Data set [3] can be described thus: Influence of ritonavir on the pharmacokinetics of a single dose of the compound of formula (4). The settings on record: human, in vivo; for AUC: mean ± SD.
The mark [4] stands for this setting: Panel E (1200 mg/200 mg RTV o.d.).

For orientation: Tmax means the time from dosing to the highest level. A word on the AUC: it is concentration integrated over time. Low readings indicate less exposure, high ones more exposure.

Consider `CC(C)CN(C[C@@H](O)[C@H](Cc1ccccc1)NC(=O)O[C@H]1CCOC1)S(=O)(=O)c1ccc(N)cc1` [amprenavir], for which, in data set [1], the “combination index (CI)” value is recorded as 0.65-0.77.

On to `Cc1cccc(C)c1OCC(=O)N[C@@H](Cc1ccccc1)[C@@H](O)C[C@H](Cc1ccccc1)NC(=O)[C@H](C(C)C)N1CCCNC1=O` [lopinavir], for which the “combination index (CI)” value in data set [1] is reported as 0.85-0.95.

With `CC(C)CN(C[C@@H](O)[C@H](Cc1ccccc1)NC(=O)O[C@H]1CO[C@H]2OCC[C@H]21)S(=O)(=O)c1ccc(N)cc1` [compound of formula (4), carbamic acid [(1S,2R)-3-[[(4-aminophenyl)sulfonyl](2-methylpropyl)amino]-2-hydroxy-1-(phenylmethyl)propyl]-(3R,3aS,6aR)hexahydrofuro[2,3-b]furan-3-yl ester], the “subjects who developed maculopapular rash” value in data set [2] (1200 mg t.i.d. alone) is given as 4 out of 6. Also, the “itching of the body and/or redness of the skin” value in data set [2] (setting [4]) was “two other volunteers”. Further, the maculopapular rash entry in data set [2] (setting [4]) is listed as “one volunteer with a clear maculopapular rash”; in data set [2] (volunteers in panels A to D (with ritonavir)), “No maculopapular rash was observed”. In addition, the results for the Tmax in data set [3] and in data set [3] (800 mg) were 60 min and 48 min, respectively. In addition, the AUC in data set [3] (800 mg, Session I: single 800 mg dose alone) turned out to be 10700 ± 3130 ng·h/mL; in data set [3] (800 mg, Session II: single 800 mg dose with RTV), 98700 ± 38500 ng·h/mL.

With `CC(C)(C)NC(=O)[C@@H]1C[C@@H]2CCCC[C@@H]2CN1C[C@@H](O)[C@H](Cc1ccccc1)NC(=O)[C@H](CC(N)=O)NC(=O)c1ccc2ccccc2n1` [saquinavir], in data set [1], the “combination index (CI)” value was 0.94-1.0.

Turning to `CC(C)(C)NC(=O)[C@@H]1CN(Cc2cccnc2)CCN1C[C@@H](O)C[C@@H](Cc1ccccc1)C(=O)N[C@H]1c2ccccc2C[C@H]1O` [indinavir], in data set [1], the “combination index (CI)” value is on record as 0.87-0.92.

With `CC(C)c1nc(CN(C)C(=O)N[C@H](C(=O)N[C@@H](Cc2ccccc2)C[C@H](O)[C@H](Cc2ccccc2)NC(=O)OCc2cncs2)C(C)C)cs1` [ritonavir], the “combination index (CI)” value in data set [1] is on record as 0.66-0.81.

For `Cc1c(O)cccc1C(=O)N[C@@H](CSc1ccccc1)[C@H](O)CN1C[C@H]2CCCC[C@H]2C[C@H]1C(=O)NC(C)(C)C` [nelfinavir], the “combination index (CI)” value in data set [1] is recorded as 0.61-0.80.

The values are drawn from patent US20050119338A1, “Combination of cytochome p450 dependent protease inhibitors” (priority 2001, published 2005).
